Assay results published in US10793589B2, “Resorcinarene-based amphipathic compound and use thereof” (Industry-University Cooperation Foundation Hanyang …, priority 2016, dated 2020).

Legend:
[1] = Critical micelle concentration by fluorescence dye diphenylhexatriene (DPH); type: physicochemical; conditions: DPH fluorescence
Experimental: A method of measuring the CMC is not particularly limited and may be any method generally known in the art. For example, the CMC may be measured according to a fluorescence staining method using diphenylhexatriene (DPH).
(§1) Specifically, critical micelle concentrations (CMCs) were measured using a fluorescence dye, diphenylhexatriene (DPH), and hydrodynamic radii (Rh) of micelles formed of each compound (1.0 wt %) were measured by a dynamic light scattering (DLS) experiment. Measured results are shown in Table 1 in comparison with values of DDM as an existing amphipathic molecule (detergent).

[2] = target: T1, human β2 adrenergic receptor (β2AR) (Homo sapiens, UniProt P07550); experiment: β2AR stability, [3H]-dihydroalprenolol (DHA) ligand binding assay; type: biochemical; conditions: for maintaining the ligand binding characteristic of the receptor compared to DDM: 0 hour, CMC+0.2 wt %, [3H]-DHA
T1 construct: made in house
Experimental: (§2) FIGS. 10A and 10B illustrate a result of measuring the effect of RGAs on the stability of β2AR after (a) 0 hour and (b) over time. Protein-ligand binding characteristics were measured via ligand binding assay using [^3H]-dihydroalprenolol (DHA), and the measurement was carried out by sampling a protein sample at regular intervals during 2 days of storage at room temperature.
as §2, with “12A” for “10A”, “12B” for “10B”, “RMAs” for “RGAs”
An experiment was carried out to measure the structural stability of a human (32 adrenergic receptor (β2AR) and a G protein-coupled receptor (GPCR) caused by RGAs and RMAs. That is, a receptor purified with DDM was diluted with a buffer solution containing only each RGA and RMA without cholesteryl hemisuccinate (CHS) or a buffer solution containing CHS and DDM. The final concentration of the compound was CMC+0.2 wt %, and the ligand binding characteristic of the receptor was measured using [^3H]-dihydroalprenolol ([^3H]-DHA) binding.
Specifically, radioligand binding assay was carried out using the following method. β2AR was purified using 0.1% DDM according to the method described in a paper (Science, 2007, 318, 1266-1273.) written by D. M. Rosenbaum et al. and finally concentrated to about 10 mg/ml (about 200 μM). The β2AR purified with DDM was used to prepare a master binding mixture containing 10 nM [^3H]-dihydroalprenolol (DHA) supplemented with 0.5 mg/ml BSA in a 0.2% amphipathic compound (DDM, RGAs or RMAs). The receptor purified with DDM, RGAs or RMAs was incubated with 10 nM [^3H]-DHA at room temperature for 30 minutes. The mixture was loaded into a G-50 column, the flow-through was collected with 1 ml of a binding buffer (20 mM HEPES pH 7.5, 100 mM NaCl, supplemented with 0.5 mg/ml BSA and 20×CMC individual amphipathic compound, and the G-50 column was further filled with 15 ml of a scintillation fluid. Receptor-bound [^3H]-DHA was measured with a scintillation counter (Beckman). The binding capacity of [^3H]-DHA was measured and shown in a column graph. Each experiment was performed in triplicate.

[3] = Hydrodynamic radius and size distribution of micelles by dynamic light scattering (DLS); type: physicochemical; conditions: compound 1.0 wt %
Experimental: A method of measuring the radius of a micelle is not particularly limited and may be any method generally known in the art. For example, the radius may be measured by a dynamic light scattering (DLS) experiment.
as §1
Meanwhile, size distributions of the micelles formed by RGAs and RMAs were measured using DLS.

[4] = system: leucine transporter (LeuT); experiment: LeuT structural stability, [3H]-Leu binding by scintillation proximity assay (SPA); type: biochemical, Aquifex aeolicus
Experimental: (§3) FIGS. 7A and 7B are a set of graphs illustrating a result of measuring the structural stability of a leucine transporter (LeuT) solubilized in RGAs or DDM evaluated at CMC+0.04 wt % (a) or CMC+0.2 wt % (b). Protein stability was determined by measuring the ability of the transporter to bind a radiolabeled ligand ([3H]-Leu) via scintillation proximity assay (SPA). The substrate binding ability of LeuT was measured at regular intervals during 10 days of incubation of the protein at room temperature in the presence of individual amphipathic compounds.
as §3, with “8A” for “7A”, “8B” for “7B”, “RMAs” for “RGAs”
An experiment was carried out to measure the structural stability of a leucine transporter (LeuT) caused by RGAs and RMAs. The concentrations of individual amphipathic compounds were (a) CMC+0.04 wt % or (b) CMC+0.2 wt %, and the substrate binding characteristic of LeuT was measured by scintillation proximity assay (SPA) using [^3H]-Leu. […]
Specifically, wild type LeuT derived from Aquifex aeolicus which is a thermophilic bacterium was purified according to the method described in the paper (Nature 1998, 392, 353-358) written by G. Deckert et al. LeuT was expressed in E. coli C41 (DE3) transformed with pET16b encoding a C-terminal 8×His-tagged transporter (an expression plasmid was provided by Dr. E. Gouaux (Vollum Institute, Portland, Oreg., USA)). […] The protein samples were stored at room temperature for 10 days and centrifuged at designated time points, and protein characteristics were determined by measuring the binding capacity of [^3H]-Leucine using SPA. […]

T1 sequence (P07550 whole entry): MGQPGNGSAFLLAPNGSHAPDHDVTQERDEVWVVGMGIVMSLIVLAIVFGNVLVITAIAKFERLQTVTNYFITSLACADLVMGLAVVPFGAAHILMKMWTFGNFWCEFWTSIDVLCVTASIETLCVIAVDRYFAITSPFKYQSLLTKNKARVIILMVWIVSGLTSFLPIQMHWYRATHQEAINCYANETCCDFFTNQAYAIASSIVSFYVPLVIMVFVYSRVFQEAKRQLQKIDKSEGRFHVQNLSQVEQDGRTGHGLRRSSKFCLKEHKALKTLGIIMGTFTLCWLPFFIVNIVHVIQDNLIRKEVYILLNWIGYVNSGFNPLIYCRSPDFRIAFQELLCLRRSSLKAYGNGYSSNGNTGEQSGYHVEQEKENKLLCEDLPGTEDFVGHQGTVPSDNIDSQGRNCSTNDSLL

| SMILES | CMC [1] [µM] | CMC (wt %) [1] [wt %] | maintaining the ligand binding characteristic of the receptor compared to DDM [2] | Rh (nm), hydrodynamic radius of micelles [3] [nm] | LeuT stabilization as concentration of compound increased ([4]; CMC+0.04 wt % versus CMC+0.2 wt %) | effect of maintaining the substrate binding characteristic of LeuT ([4]; CMC+0.2 wt %, 10 days at room temperature) | ability to maintain the ligand binding of the receptor over time compared to DDM ([2]; 2 days at room temperature, early stage (0 to 12 h)) |
| --- | --- | --- | --- | --- | --- | --- | --- |
| CCCCCCC[C@H]1c2cc(c(OCCO[C@@H]3OC(CO)[C@@H](O)[C@H](O)C3O)cc2OCCO[C@@H]2OC(CO)[C@@H](O)[C@H](O)C2O)[C@H](CCCCCCC)c2cc(c(OCCO[C@@H]3OC(CO)[C@@H](O)[C@H](O)C3O)cc2OCCO[C@@H]2OC(CO)[C@@H](O)[C@H](O)C2O)[C@@H](CCCCCCC)c2cc(c(OCCO[C@@H]3OC(CO)[C@@H](O)[C@H](O)C3O)cc2OCCO[C@@H]2OC(CO)[C@@H](O)[C@H](O)C2O)[C@@H](CCCCCCC)c2cc1c(OCCO[C@@H]1OC(CO)[C@@H](O)[C@H](O)C1O)cc2OCCO[C@@H]1OC(CO)[C@@H](O)[C@H](O)C1O (some centres unmarked) [RGA-C8] | ~10 | ~0.025 | inferior to DDM | 2.8 ± 0.1 | enhanced effect as concentration increased | highest effect of maintaining the substrate binding characteristic of LeuT | – |
| CCCCCCCCCCC[C@H]1c2cc(c(OCCO[C@@H]3OC(CO)[C@@H](O)[C@H](O)C3O)cc2OCCO[C@@H]2OC(CO)[C@@H](O)[C@H](O)C2O)[C@H](CCCCCCCCCCC)c2cc(c(OCCO[C@@H]3OC(CO)[C@@H](O)[C@H](O)C3O)cc2OCCO[C@@H]2OC(CO)[C@@H](O)[C@H](O)C2O)[C@@H](CCCCCCCCCCC)c2cc(c(OCCO[C@@H]3OC(CO)[C@@H](O)[C@H](O)C3O)cc2OCCO[C@@H]2OC(CO)[C@@H](O)[C@H](O)C2O)[C@@H](CCCCCCCCCCC)c2cc1c(OCCO[C@@H]1OC(CO)[C@@H](O)[C@H](O)C1O)cc2OCCO[C@@H]1OC(CO)[C@@H](O)[C@H](O)C1O (some centres unmarked) [RGA-C12] | ~2.5 | ~0.0069 | superior to DDM | 3.0 ± 0.2 | – | – | inferior ability to maintain the ligand binding of the receptor compared to DDM |
| CCCCCCCCC[C@H]1c2cc(c(OCCO[C@@H]3OC(CO)[C@@H](O)[C@H](O)C3O)cc2OCCO[C@@H]2OC(CO)[C@@H](O)[C@H](O)C2O)[C@H](CCCCCCCCC)c2cc(c(OCCO[C@@H]3OC(CO)[C@@H](O)[C@H](O)C3O)cc2OCCO[C@@H]2OC(CO)[C@@H](O)[C@H](O)C2O)[C@@H](CCCCCCCCC)c2cc(c(OCCO[C@@H]3OC(CO)[C@@H](O)[C@H](O)C3O)cc2OCCO[C@@H]2OC(CO)[C@@H](O)[C@H](O)C2O)[C@@H](CCCCCCCCC)c2cc1c(OCCO[C@@H]1OC(CO)[C@@H](O)[C@H](O)C1O)cc2OCCO[C@@H]1OC(CO)[C@@H](O)[C@H](O)C1O (some centres unmarked) [RGA-C10] | ~5 | ~0.013 | – | 3.5 ± 0.2 | – | – | – |
